Assay results published in PubChem BioAssay AID248 (DTP/NCI, 2004).
Several values for one entry are separate records, joined by “and”; a condition that tells them apart may be missing. Equal entries are not always repeated. Toxic doses and inconclusive results are not listed.

Test system: L1210 leukemia ip in BDF1 mice, survival T/C
Test: NCI In Vivo Anticancer Drug Screen. Data for tumor model L1210 Leukemia (intraperitoneal) in B6D2F1 (BDF1) mice
Details: higher = longer survival
Outline: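 Transplanted-tumor mice were given test agent; controls received vehicle only. Survival readings from the two groups were divided (treated over control).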

[1] = endpoint: mean survival time, dose: 100.0 mg/kg/injection, schedule: Q01DX001 (ip), vehicle: saline
[2] = endpoint: mean survival time, dose: 200.0 mg/kg/injection, schedule: Q01DX001 (ip), vehicle: saline
[3] = endpoint: mean survival time, dose: 400.0 mg/kg/injection, schedule: Q01DX001 (ip), vehicle: saline

With CCCCCCOc1ccc(CC(N)C(=O)O)cc1N(CCCl)CCCl (configuration not stated) the T/C (endpoint: mean survival time, dose: 2.5 mg/kg/injection, schedule: Q01DX009 (ip), vehicle: carboxymethylcellulose (CMC)) was 119 % of control, the T/C (endpoint: mean survival time, dose: 4.4 mg/kg/injection, schedule: Q01DX001 (ip), vehicle: carboxymethylcellulose (CMC)) was 109 % of control and the T/C (endpoint: mean survival time, dose: 6.6 mg/kg/injection, schedule: Q01DX001 (ip), vehicle: carboxymethylcellulose (CMC)) was 115 % of control. For the same molecule, the T/C (endpoint: mean survival time, dose: 8.5 mg/kg/injection, schedule: Q01DX001 (ip), vehicle: carboxymethylcellulose (CMC)) was 117 % of control, the T/C (endpoint: mean survival time, dose: 10.0 mg/kg/injection, schedule: Q01DX001 (ip), vehicle: carboxymethylcellulose (CMC)) was 110 % of control and the T/C (endpoint: mean survival time, dose: 13.0 mg/kg/injection, schedule: Q01DX001 (ip), vehicle: carboxymethylcellulose (CMC)) was 117 % of control. The T/C (endpoint: mean survival time, dose: 15.0 mg/kg/injection, schedule: Q01DX001 (ip), vehicle: carboxymethylcellulose (CMC)) was 116 % of control, the T/C (endpoint: mean survival time, dose: 15.0 mg/kg/injection, schedule: Q01DX009 (ip), vehicle: carboxymethylcellulose (CMC)) was 152 % of control and the T/C (endpoint: mean survival time, dose: 20.0 mg/kg/injection, schedule: Q01DX001 (ip), vehicle: carboxymethylcellulose (CMC)) was 122 % of control. The T/C (endpoint: mean survival time, dose: 22.5 mg/kg/injection, schedule: Q01DX009 (ip), vehicle: carboxymethylcellulose (CMC)) was 113 % of control and the T/C (endpoint: mean survival time, dose: 30.0 mg/kg/injection, schedule: Q01DX001 (ip), vehicle: carboxymethylcellulose (CMC)) was 122 % of control.

With NC(=O)c1nc2n(c1N)CCC2 the T/C (endpoint: mean survival time, dose: 100.0 mg/kg/injection, schedule: Q01DX009 (ip), vehicle: saline with Tween-80) was 108 % of control, the T/C (endpoint: mean survival time, dose: 100.0 mg/kg/injection, schedule: Q04DX003 (ip), vehicle: saline with Tween-80) was 97 % of control and the T/C (endpoint: mean survival time, dose: 200.0 mg/kg/injection, schedule: Q01DX009 (ip), vehicle: saline with Tween-80) was 110 % of control. The T/C (endpoint: mean survival time, dose: 200.0 mg/kg/injection, schedule: Q04DX003 (ip), vehicle: saline with Tween-80) was 100 % of control, the T/C (endpoint: mean survival time, dose: 400.0 mg/kg/injection, schedule: Q01DX009 (ip), vehicle: saline with Tween-80) was 105 % of control and the T/C (endpoint: mean survival time, dose: 400.0 mg/kg/injection, schedule: Q04DX003 (ip), vehicle: saline with Tween-80) was 94 % of control.

In the case of CCC1(c2ccccc2)C2C(=O)NC(=O)C1C(=O)NC2=O (configuration not stated), the T/C [1] is reported as 98 % of control, the T/C [2] is reported as 95 % of control and the T/C [3] is reported as 101 % of control.

In the case of COc1cccc2c1C(=O)c1c(O)c3c(c(O)c1C2=O)CC(O)(C(C)=O)CC3OC1CC(N)C(O)C(C)O1 (configuration not stated), the T/C (endpoint: mean survival time, dose: 2.0 mg/kg/injection, schedule: Q01DX001 (ip), vehicle: saline) is reported as 121 % of control, the T/C (endpoint: mean survival time, dose: 8.0 mg/kg/injection, schedule: Q01DX009 (ip), vehicle: saline) is reported as 98 % of control and the T/C (endpoint: mean survival time, dose: 16.0 mg/kg/injection, schedule: Q01DX001 (ip), vehicle: saline) is reported as 121 % of control. For the same molecule, the T/C (endpoint: mean survival time, dose: 32.0 mg/kg/injection, schedule: Q01DX001 (ip), vehicle: saline) was 100 % of control, the T/C (endpoint: median survival time, dose: 6.0 mg/kg/injection, schedule: Q01DX005 (ip), vehicle: other) was 117 % of control and the T/C (endpoint: median survival time, dose: 6.0 mg/kg/injection, schedule: Q04DX003 (ip), vehicle: water) was 122 % of control. For the same molecule, the T/C (endpoint: median survival time, dose: 6.6 mg/kg/injection, schedule: Q01DX005 (ip), vehicle: water) was 115 % of control, the T/C (endpoint: median survival time, dose: 10.0 mg/kg/injection, schedule: Q04DX003 (ip), vehicle: water) was 115 % of control and the T/C (endpoint: median survival time, dose: 11.0 mg/kg/injection, schedule: Q01DX005 (ip), vehicle: other) was 117 % of control. For the same molecule, the T/C (endpoint: median survival time, dose: 11.0 mg/kg/injection, schedule: Q01DX005 (ip), vehicle: water) was 121 % of control, the T/C (endpoint: median survival time, dose: 16.0 mg/kg/injection, schedule: Q01DX005 (ip), vehicle: other) was 117 % of control and the T/C (endpoint: median survival time, dose: 17.0 mg/kg/injection, schedule: Q04DX003 (ip), vehicle: water) was 155 % of control. The T/C (endpoint: median survival time, dose: 21.0 mg/kg/injection, schedule: Q01DX005 (ip), vehicle: other) was 122 % of control, the T/C (endpoint: median survival time, dose: 31.0 mg/kg/injection, schedule: Q01DX005 (ip), vehicle: other) was 121 % of control and the T/C (endpoint: median survival time, dose: 48.0 mg/kg/injection, schedule: Q04DX003 (ip), vehicle: water) was 115 % of control. The T/C (endpoint: median survival time, dose: 80.0 mg/kg/injection, schedule: Q04DX003 (ip), vehicle: water) was 157 % of control, the T/C (endpoint: median survival time, dose: 83.0 mg/kg/injection, schedule: Q01DX005 (ip), vehicle: water) was 100 % of control and the T/C (endpoint: median survival time, dose: 133.0 mg/kg/injection, schedule: Q04DX003 (ip), vehicle: water) was 115 % of control. For the same molecule, the T/C (endpoint: median survival time, dose: 222.0 mg/kg/injection, schedule: Q04DX003 (ip), vehicle: water) was 89 % of control.

For CC(C)(C)c1ccc(OC(=O)Nc2ccc(O)c(C(=O)O)c2)cc1, the T/C (endpoint: mean survival time, dose: 100.0 mg/kg/injection, schedule: Q01DX001 (ip), vehicle: Klucel (hydroxypropylcellulose) (HPC)) was 115 % of control, the T/C (endpoint: mean survival time, dose: 100.0 mg/kg/injection, schedule: Q01DX009 (ip), vehicle: Klucel (hydroxypropylcellulose) (HPC)) was 94 % of control and 98 % of control and the T/C (endpoint: mean survival time, dose: 100.0 mg/kg/injection, schedule: Q04DX002 (ip), vehicle: Klucel (hydroxypropylcellulose) (HPC)) was 96 % of control and 118 % of control. For the same molecule, the T/C (endpoint: mean survival time, dose: 100.0 mg/kg/injection, schedule: Q04DX003 (ip), vehicle: Klucel (hydroxypropylcellulose) (HPC)) was 96 % of control, the T/C (endpoint: mean survival time, dose: 200.0 mg/kg/injection, schedule: Q01DX009 (ip), vehicle: Klucel (hydroxypropylcellulose) (HPC)) was 94 % of control and the T/C (endpoint: mean survival time, dose: 200.0 mg/kg/injection, schedule: Q04DX002 (ip), vehicle: Klucel (hydroxypropylcellulose) (HPC)) was 92 % of control and 86 % of control. The T/C (endpoint: mean survival time, dose: 200.0 mg/kg/injection, schedule: Q04DX003 (ip), vehicle: Klucel (hydroxypropylcellulose) (HPC)) was 86 % of control.

With CCOC(=O)CSc1nc2ccccc2[nH]1 the T/C (endpoint: mean survival time, dose: 100.0 mg/kg/injection, schedule: Q01DX001 (ip), vehicle: saline with Tween-80) was 97 % of control, the T/C (endpoint: mean survival time, dose: 200.0 mg/kg/injection, schedule: Q01DX001 (ip), vehicle: saline with Tween-80) was 98 % of control and the T/C (endpoint: mean survival time, dose: 400.0 mg/kg/injection, schedule: Q01DX001 (ip), vehicle: saline with Tween-80) was 93 % of control.

With O=[N+]([O-])c1ccn(O)c(=Nc2ccccc2)c1 the T/C [1] was 108 % of control, the T/C [2] was 104 % of control and the T/C [3] was 100 % of control.
